The results in this text go back to patent US20210017607A1, “Methods of Predicting Responsiveness to Cancer Therapies” (The University of Chicago, priority 2019, published 2021).

Values after ≈ are worked out from the molar mass of the structure shown. Where two headings read alike, the source gives them in different places.

The nature of experiment [1]: IC90 concentrations stated for in vitro/ex vivo drug treatments. Particulars: for IC90: read-out: IC90 concentration.
The next experiment concerns ID8 ovarian cancer cells. Description: ID8 cells in vitro STING pathway activation (western, ImageStream, ELISA). Format: cell-based, mouse. Particulars: for STING pathway activation within ID8-PTEN^−/− cells / IFNB1 levels in combination with STING agonist DMXAA, ID8-PTEN^−/− cells: 36 hours; for IFNB1 levels in combination with STING agonist DMXAA, ID8-PTEN^−/− cells: ELISA. Here is the method: FIGS. 56A and 56B. […] (56A) PTEN-proficient (PTEN^+/+) and deficient (PTEN^−/−) ID8 ovarian cancer cells were treated with DMXAA (50 μg/mL) for 0, 1, 6, 12, 24 and 36 hours. Nuclear extracts were probed for localization of p-IRF3 and p-NF-kB, markers of STING pathway activation. n=1 independent experiment. (56B) Wild-type (PTEN^+/+) and PTEN-deficient (PTEN^−/−) Myc-CAP (prostate) and ID8 (ovarian) cancer cells were treated with DMXAA (50 μg/mL) for 36 hours. The supernatants were analyzed by ELISA for IFN-β1 release. n=3 independent experiments.
FIGS. 57A-57C. […] PTEN-proficient (PTEN+/+) and deficient (PTEN−/−) ID8 ovarian cancer cells were treated with DMXAA (50 μg/mL) for 0, 12, 24 and 36 hours. (57A) The nuclear localization of p-IRF3 and p-NFkB was analyzed by ImageStream. The overlap of the two generates a white color that scores for nuclear localization of pIRF3. (57B) Graphical representation of nuclear localization of pIRF3 and p-NF-kB at 12, 24, and 36 hours after DMXAA treatment, relative to untreated groups in ID8 wild-type and PTEN^−/− cells. n=3 independent experiments.
FIGS. 58A and 58B. […] (58A) PTEN-proficient (PTEN^+/+) and deficient (PTEN^−/−) ID8 ovarian cancer cells were treated with IC90 concentrations of pan-PI3K inhibitors, either copanlisib (100 nM) or BKM120 (1000 nM) for 36 hours in presence or absence of STING agonists, DMXAA (50 μg/mL, 1 hour at the end of experiment). The activation status of both PI3K and STING signaling pathways were probed with the indicated antibodies by western blotting. n=2 independent experiments. (58B) Cells were treated as described in (58A), with the exception that concomitant DMXAA treatment was carried out for 36 hours. The supernatants were analyzed by ELISA for IFN-β1 release. n=3 independent experiments.
Cytokine Array/IFNβ1 ELISA. Supernatants from untreated or drug treated cancer cell lines and bone marrow derived macrophages were collected at 36 hours and spun down at 2000×g for 5 min at 4° C. to remove cellular debris. These clear supernatants were processed for detection of Type I Interferon by ELISA (LEGEND MAX™ Mouse IFNβ1 ELISA, Biolegend®) or for determination of a panel of cytokines/chemokines using LEGENDplex™ array (Mouse Anti-Virus Response Panel, Biolegend®) as per instructions in protocol provided.
Western blotting. RIPA buffer (Boston BioProducts) supplemented with protease (Roche®) and HALT phosphatase inhibitor cocktail (Thermo Scientific®) was used for preparation of total cell lysates. For western blotting, the following antibodies were used from Cell Signaling Technology®: Polyclonal rabbit anti-mouse-, phospho-AKT, total AKT, c-GAS, STING, phospho-IRF3, total IRF3, phospho-TBK1, total TBK1, PTEN, phospho NF-kB, total NF-kB, p53, lamin B1, β-actin, alpha-tubulin, and GAPDH. Images of scanned blots were processed using ADOBE Photoshop.
Image Stream Analysis. PTEN-proficient and deficient ID8 ovarian cancer cells were treated with DMXAA (50 ug/mL) for 0, 12, 24, and 36 hours. After termination at endpoints, cells were stained with primary antibodies—anti-mouse p-IRF3 (Cell Signaling Technology®), p-NFkB (Cell Signaling Technology®), followed by incubation with flurochrome tagged secondary antibodies and DAPI. Images of nuclear localization of p-IRF3 and p-NF-kB within single cells were acquired using ImageStreamg®^x Mark II (Amnis®) and data obtained was analyzed using IDEAS® software.
Background: An ELISA detects its analyte on a solid surface through an enzyme-linked reagent.

The mark [2] stands for this setting: FIG. 38, Myc-CAP-PTEN+/+ and PTEN−/− tumor suspensions.
[3] abbreviates: FIG. 58, ID8 ovarian cancer cells.
The mark [4] stands for this setting: FIG. 50, Myc-CAP-PTEN^−/− tumor suspensions.

`Nc1cc(C(F)(F)F)c(-c2cc(N3CCOCC3)nc(N3CCOCC3)n2)cn1` [buparlisib]: the IC90 in experiment [1] (setting [2]) was determined as 1 µM. Also, the IC90 in experiment [1] (setting [3]) came to 1 µM. Moreover, in the experiment with ID8 ovarian cancer cells, the “STING pathway activation within ID8-PTEN^−/− cells” value is “partially restore STING pathway activation” and the “IFNB1 levels in combination with STING agonist DMXAA, ID8-PTEN^−/− cells” value is “unable to rescue IFNB1 levels”.

For the compound `CNCc1ccc(-c2[nH]c3cc(F)cc4c3c2CCNC4=O)cc1` [rucaparib], the IC90 in experiment [1] (setting [2]) stood at 0.5 µM.

Regarding `COc1c(OCCCN2CCOCC2)ccc2c1N=C(NC(=O)c1cnc(N)nc1)N1CCN=C21` [copanlisib], the results for the IC90 in experiment [1] (setting [4]), in experiment [1] (setting [3]) and in experiment [1] (Myc-CAP-PTEN^−/− cells in vitro (FIG. 35)) were 0.5 µM, 0.1 µM and 0.1 µM, respectively. Moreover, the “STING pathway activation within ID8-PTEN^−/− cells” value with ID8 ovarian cancer cells is reported as “partially restore STING pathway activation”. In addition, the “IFNB1 levels in combination with STING agonist DMXAA, ID8-PTEN^−/− cells” value with ID8 ovarian cancer cells is “unable to rescue IFNB1 levels”.

With `Cc1ccc2c(=O)c3cccc(CC(=O)O)c3oc2c1C` [DMXAA, 5,6-Dimethylxanthenone-4-acetic Acid], the IC90 concentration in experiment [1] (setting [2]) and in experiment [1] (setting [4]) was 50 µg/mL (≈ 177 µM) throughout. Also, the “STING pathway activation after PTEN knockdown” value in the experiment on ID8 ovarian cancer cells (DMXAA 50 μg/mL) is recorded as “abrogates STING pathway activation”. Moreover, the “IRF3 translocation to the nucleus after PTEN knockdown” value in the experiment on ID8 ovarian cancer cells (DMXAA 50 μg/mL, 0-36 hours) is on record as “abolishes IRF3 translocation to the nucleus”.
